Source: patent US12576093B2, “Pharmaceutical composition for subcutaneous administration” (MANNKIND CORPORATION, priority 2019, dated 2026)
Like-named read-outs stand apart in the source and are kept apart here.

Tests used:
[1] = dog, in vivo, sc, 0.837 mg/kg
[2] = cited from earlier work
[3] = cited from earlier work; remark: listed apart in the source
[4] = in vivo; conditions: male, Beagle, dog, sc, 0.837 mg/kg

In the case of `CN1CCc2cccc3c2[C@H]1Cc1ccc(O)c(O)c1-3` [Apomorphine], the Cmax [1] is given as 3.41 ng(mL, the Solubility ([2]; in Toluene (wrapped cell r23-r24: practically insoluble)) is given as “insoluble in Toluene” and the Solubility ([2]; in alcohol (wrapped cell r19-r20: sparingly soluble in water and in alcohol)) is given as “Sparingly soluble in water”. The Solubility ([2]; in chloroform (wrapped cell r21-r22: very slightly soluble)) was “water at 80°; very slightly”, the Solubility ([2]; in ether (wrapped cell r21-r23: very slightly soluble)) was “water at 80°; very slightly” and the Solubility ([2]; in water) was “Sparingly soluble in water”. The Stability ([3]; exposure to light and air (wrapped cell r15-r17: gradually acquires a green color)) was “acquires a green color on”, the Stability ([3]; recommended storage conditions (protect from light)) was “Stable under recommended” and the AUC(0-t) ([4]; AUClast) was 82.9 ng·h/mL. For the same molecule, the MRT last ([4]; MRTlast) was 24.4 h and the tmax ([4]; Tmax) was 30 h.
